Assay results taken from patent publication US8906899B2, “Azetidine derivatives as sphingosine 1-phosphate (S1P) receptor modulators” (Allergan, Inc., priority 2010, dated 2014).

Target: T1, human S1P1 receptor (Homo sapiens, UniProt P21453)
T1 construct: expressed in transfected cells; membranes used
Assay: GTP γ35S binding assay for S1P1 activity
Assay type: biochemical
Details: activity potency from GTP γ35S binding; membranes, test compounds 0.08 to 5,000 nM, 30 min at 25° C.
Experimental: Compounds were synthesized and tested for S1P1 activity using the GTP γ^35S binding assay. These compounds may be assessed for their ability to activate or block activation of the human S1P1 receptor in cells stably expressing the S1P1 receptor.
GTP γ^35S binding was measured in the medium containing (mM) HEPES 25, pH 7.4, MgCl2 10, NaCl 100, dithitothreitol 0.5, digitonin 0.003%, 0.2 nM GTP γ^35S, and 5 μg membrane protein in a volume of 150 μl. Test compounds were included in the concentration range from 0.08 to 5,000 nM unless indicated otherwise. Membranes were incubated with 100 μM 5′-adenylylimmidodiphosphate for 30 min, and subsequently with 10 μM GDP for 10 min on ice. Drug solutions and membrane were mixed, and then reactions were initiated by adding GTP γ^35S and continued for 30 min at 25° C. Reaction mixtures were filtered over Whatman GF/B filters under vacuum, and washed three times with 3 mL of ice-cold buffer (HEPES 25, pH7.4, MgCl2 10 and NaCl-100). Filters were dried and mixed with scintillant, and counted for ^35S activity using a β-counter. Agonist-induced GTP γ^35S binding was obtained by subtracting that in the absence of agonist. Binding data were analyzed using a non-linear regression method. In case of antagonist assay, the reaction mixture contained 10 nM S1P in the presence of test antagonist at concentrations ranging from 0.08 to 5000 nM.

T1 sequence (P21453 whole entry): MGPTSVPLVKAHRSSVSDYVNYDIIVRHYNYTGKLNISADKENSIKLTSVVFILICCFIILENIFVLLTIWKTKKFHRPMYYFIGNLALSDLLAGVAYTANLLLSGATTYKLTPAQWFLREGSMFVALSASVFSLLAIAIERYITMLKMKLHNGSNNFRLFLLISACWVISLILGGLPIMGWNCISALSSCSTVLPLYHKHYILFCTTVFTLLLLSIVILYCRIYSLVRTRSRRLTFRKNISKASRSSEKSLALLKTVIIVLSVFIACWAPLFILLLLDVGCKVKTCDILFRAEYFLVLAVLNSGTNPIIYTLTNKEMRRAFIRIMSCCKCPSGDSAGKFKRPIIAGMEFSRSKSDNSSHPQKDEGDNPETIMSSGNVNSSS

SMILES	EC50 [µM]
CCCc1ccc(OC(c2cccc(Cl)c2)c2nc(-c3ccc(CN4CC(C(=O)O)C4)cc3)no2)cc1 (stereo not drawn) [Compound 3, 1-(4-{5-[(3-chlorophenyl)(4-propylphenoxy)methyl]-1,2,4-oxadiazol-3-yl}benzyl)azetidine-3-carboxylic acid]	1.1
Cc1ccc(NC(c2cccc(Cl)c2)c2nc(-c3ccc(CN4CC(C(=O)O)C4)cc3)no2)cc1C (stereo not drawn) [Compound 6, 1-[4-(5-{(3-chlorophenyl)[(3,4-dimethylphenyl)amino]methyl}-1,2,4-oxadiazol-3-yl)benzyl]azetidine-3-carboxylic acid]	0.312
O=C(NCc1ccc2c(c1)OCO2)c1cc(-c2ccccc2)c(N2CCOCC2)s1 [N-(1,3-benzodioxol-5-ylmethyl)-5-morpholin-4-yl-4-phenylthiophene-2-carboxamide]	0.336

Further lines, results first:

EC50 [µM]	SMILES
1.06	CCc1ccc(OC(c2cccc(Cl)c2)c2nc(-c3ccc(CN4CC(C(=O)O)C4)cc3)no2)cc1 (stereo not drawn) [Compound 1, 1-(4-{5-[(3-chlorophenyl)(4-ethylphenoxy)methyl]-1,2,4-oxadiazol-3-yl}benzyl)azetidine-3-carboxylic acid]
0.598	Cc1ccc(OC(c2cccc(Cl)c2)c2nc(-c3ccc(CN4CC(C(=O)O)C4)cc3)no2)cc1C (stereo not drawn) [Compound 2, 1-(4-{5-[(3-chlorophenyl)(3,4-dimethylphenoxy)methyl]-1,2,4-oxadiazol-3-yl}benzyl)azetidine-3-carboxylic acid]
0.911	Cc1ccc(OC(c2nc(-c3ccc(CN4CC(C(=O)O)C4)cc3)no2)c2ccccc2Cl)cc1C (stereo not drawn) [Compound 4, 1-(4-{5-[(2-chlorophenyl)(3,4-dimethylphenoxy)methyl]-1,2,4-oxadiazol-3-yl}benzyl)azetidine-3-carboxylic acid]
